Measured values taken from PubChem BioAssay (NCI).
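How tested: cells in 96-well plates exposed to compound for 48 hours at five concentrations. GI50 marks 50% less growth. TGI marks complete inhibition of growth.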

Tests used:
Test in all cases: NCI anticancer screen, dose series, 48 h
A549 NSCLC = tested on: A549 NSCLC
ACHN renal = tested on: ACHN renal
CAKI-1 renal = tested on: CAKI-1 renal
DU-145 prostate = tested on: DU-145 prostate
MDA-MB-435 = tested on: MDA-MB-435
MDA-N = tested on: MDA-N
SF-268 CNS = tested on: SF-268 CNS
TK-10 renal = tested on: TK-10 renal
HCC-2998 colon = tested on: HCC-2998 colon
M19-MEL melanoma = tested on: M19-MEL melanoma
HS 578T breast = tested on: HS 578T breast

Row | SMILES | TGI (A549 NSCLC) | TGI (ACHN renal) | TGI (CAKI-1 renal) | TGI (DU-145 prostate) | TGI (MDA-MB-435) | TGI (MDA-N) | TGI (SF-268 CNS) | TGI (TK-10 renal) | TGI (HCC-2998 colon) | TGI (M19-MEL melanoma) | TGI (HS 578T breast) | GI50 (A549 NSCLC) | GI50 (ACHN renal) | GI50 (DU-145 prostate) | GI50 (HCC-2998 colon) | GI50 (HS 578T breast) | GI50 (MDA-MB-435) | GI50 (SF-268 CNS) | GI50 (TK-10 renal) | GI50 (CAKI-1 renal)
1 | c1ccc2c(c1)c1ccccc1n2Cn1c2ccccc2c2ccccc21 | > 100 µM | > 100 µM | > 100 µM | > 100 µM | > 100 µM | > 100 µM | > 100 µM | > 100 µM | – | – | – | – | – | – | – | – | – | – | – | –
2 | CCOC(=O)/C=C/c1c(C)[nH]c(=O)[nH]c1=O | > 250 µM | – | > 234 µM | – | – | – | > 250 µM | – | > 250 µM | > 250 µM | – | – | – | – | – | – | – | – | – | –
3 | O=C(NN1C(=O)C(Cl)C1c1cccc([N+](=O)[O-])c1)c1ccccc1O (configuration not stated) | > 100 µM | – | – | – | – | – | > 100 µM | > 100 µM | – | > 100 µM | – | – | – | – | – | – | – | – | – | –
4 | CCOC(=O)NC(Nc1cc(Cl)ccc1OC)(C(F)(F)F)C(F)(F)F | > 100 µM | > 100 µM | > 100 µM | > 100 µM | > 100 µM | > 100 µM | > 100 µM | > 100 µM | > 100 µM | – | > 100 µM | – | – | – | – | – | – | – | – | –
5 | C/C(=N\NC(=S)N1CCC(N2CCCCC2)CC1)c1ccccn1 | 10.3 µM | 5.65 µM | 5.87 µM | 11.2 µM | 6 µM | 5.9 µM | 12.9 µM | 6.29 µM | > 24.3 µM | 12.6 µM | 31.7 µM | – | – | – | – | – | – | – | – | –
6 | O=C1CCC[C@H]2O[C@@H](COC(=O)c3ccccc3)C[C@H]2O1 | > 100 µM | > 100 µM | > 100 µM | > 100 µM | > 100 µM | > 100 µM | > 100 µM | – | – | – | > 100 µM | – | – | – | – | – | – | – | – | –
7 | O=C1C(CO)=C[C@H](O)[C@H]2O[C@@H]12 | > 394 µM | – | 514 µM | – | – | – | 298 µM | – | > 508 µM | 292 µM | – | – | – | – | – | – | – | – | – | –
8 | Cc1ccc(Cl)cc1N=NC(=O)NNc1cc(Cl)ccc1C | – | – | 45.1 µM | 58.3 µM | 99 µM | > 100 µM | – | – | > 100 µM | – | 54.8 µM | – | – | – | – | – | – | – | – | –
9 | CCOc1cc(/C=C/C(=O)C(C(=O)/C=C/c2ccc(OC(=O)CNc3nc4ccccc4[nH]3)c(OCC)c2)C(=O)CNc2nc3ccccc3[nH]2)ccc1OC(=O)CNc1nc2ccccc2[nH]1 | 27 µM | 6.68 µM | – | 3.72 µM | 6.92 µM | – | 6.79 µM | 14.2 µM | 3.22 µM | – | 5.18 µM | 3.55 µM | 2.31 µM | 1.7 µM | 1.69 µM | 1.83 µM | 2.07 µM | 2 µM | 3.24 µM | –
10 | O=C(N/N=C\c1cccc2ccccc12)Nc1ccccc1 | – | – | > 100 µM | > 100 µM | > 100 µM | > 100 µM | – | > 100 µM | – | – | > 100 µM | – | – | – | – | – | – | – | – | –
11 | c1cc2c3c(c1)c1cc4c(cc1c[n+]3CC2)OCO4 | 10.2 µM | – | 120 µM | – | – | – | 5.26 µM | – | 10.4 µM | 5.21 µM | – | – | – | – | – | – | – | – | – | –
12 | COc1cc(-c2ccc(N=Nc3ccc4c(S(=O)(=O)O)cc(S(=O)(=O)O)c(N)c4c3O)c(OC)c2)ccc1N=Nc1ccc2c(S(=O)(=O)O)cc(S(=O)(=O)O)c(N)c2c1O | > 100 µM | – | – | – | – | – | > 100 µM | – | > 100 µM | > 100 µM | – | – | – | – | – | – | – | – | – | –
13 | COc1cccc2c1C(=O)c1c(O)c3c(c(O)c1C2=O)C[C@@](O)(C(=O)COC(=O)c1ccccc1)C[C@@H]3OC1CC(N)C(O)C(C)O1 (some centres not stated) | – | 0.457 µM | 2.11 µM | 1.1 µM | 0.284 µM | – | 1.34 µM | 0.879 µM | 2.32 µM | – | – | – | 0.0925 µM | 0.252 µM | 0.421 µM | – | 0.137 µM | 0.173 µM | 0.151 µM | 0.701 µM
